According to US20240148728A1, “NOVEL METHOD TO BLOCK IN[…] DEATH AND IL-1BETA SECRETION CAUSED BY […] UV I[…] GENETIC AND CHEMICAL INHIBITORS OF ZAKA AND THE NLRP1 INFLAMMASOME” (priority 2021, published 2024):

Tests used:
NLRP1^DR = test: NLRP1 PYD-DR1 / NLRP1^DR phosphorylation (GFP fusion, immunoblot, PhosTag SDS-PAGE) in N-TERT cells; format: cell-based, human
Source text: The following antibodies were used in this study: cleaved PARP1 (Abclonal, #WH162766), Cleaved CASP3 (Abclonal, #WH154646), Full length GSDMD-FL (Abcam, #ab210070), IL1β p17 specific (CST, #83186S), CARD8 (Abcam, CARD8-NT: ab19485, CARD8-CT: ab241186), DPP9 (Abcam, ab226334), c-Myc (Santa Cruz Biotechnology, #sc-40), HA tag (Santa Cruz Biotechnology, #sc-805), GAPDH (Santa Cruz Biotechnology, #sc-47724), ASC (Adipogen, #AL-177), CASP1 (Santa Cruz Biotechnology, #sc-622), 11_1B (R&D systems, #AF-201), FLAG (SigmaAldrich, #F3165), NLRP1 (R&D systems, #AF6788), IL18 (Abcam ab207324), cleaved GSDMD-NT (Asp275) (Cell Signaling Technology, #36425), RPL31 (Abclonal, #WH162766), CASP7 (Abcam, ab255818), CASP8 (Abcam, ab32397), cleaved CASP3 (Cell Signaling Technology, #9664). All horseradish peroxidase (HRP)— conjugated secondary antibodies were purchased from Jackson Immunoresearch (goat anti-mouse IgG: 115-035-166; goat anti-rabbit IgG: 111-035-144; and donkey anti-goat IgG: 705-005-147). Blue-Native PAGE was carried out using the Native-PAGE system (ThermoFisher) with 10-20 μg of total lysate. For SDS-PAGE using whole cell lysates, cells were resuspended in tris-buffered saline 1% NP-40 with protease inhibitors (Thermo Scientific, #78430). Protein concentration was determined using the Bradford assay (Thermo Scientific, #23200) and […] of protein loaded, a part from cleaved GSDMD-NT visualisation where […] of protein was used. All primary antibodies were used at 250 ng/ml. Visualisation of ASC oligomerization was previously described (Robinson et al., 2020). For analysis of IL1β and IL-18 cleavage in the media by immunoblotting, samples were concentrated using filtered centrifugation (Merck, Amicon Ultra, #UFC5003BIK). Protein samples were run using immunoblotting, and then visualized using a ChemiDoc Imaging system (Bio-Rad). PhosTag SDS-PAGE was carried out using homemade 10% SDS-PAGE gel, with addition of Phos-tag Acrylamide (Wako Chemicals, AAL-107) to a final concentration of 30 μM and manganese chloride(II) (Sigma-Aldrich, #63535) to 60 μM.
Cells were directly harvested using Laemmli buffer, lysed with an ultrasonicator, and loaded into the Phos-tag gel to run. Once the run was completed, the polyacrylamide gel was washed in transfer buffer with 10 mM EDTA twice, subsequently washed without EDTA twice, blotted onto 0.45 μm PVDF membranes (Bio-rad), blocked with 3% milk, and incubated with primary and corresponding secondary antibodies.

human DPP9 = biological target: T1, human DPP9 (Homo sapiens, UniProt Q86TI2); test: DPP8/9 activity assay (in vitro proteolysis assay); format: biochemical; settings: Gly-Pro-AMC hydrolysis
T1 construct: expressed in transfected cells; host or cells: 293T
T1 sequence (Q86TI2 whole entry): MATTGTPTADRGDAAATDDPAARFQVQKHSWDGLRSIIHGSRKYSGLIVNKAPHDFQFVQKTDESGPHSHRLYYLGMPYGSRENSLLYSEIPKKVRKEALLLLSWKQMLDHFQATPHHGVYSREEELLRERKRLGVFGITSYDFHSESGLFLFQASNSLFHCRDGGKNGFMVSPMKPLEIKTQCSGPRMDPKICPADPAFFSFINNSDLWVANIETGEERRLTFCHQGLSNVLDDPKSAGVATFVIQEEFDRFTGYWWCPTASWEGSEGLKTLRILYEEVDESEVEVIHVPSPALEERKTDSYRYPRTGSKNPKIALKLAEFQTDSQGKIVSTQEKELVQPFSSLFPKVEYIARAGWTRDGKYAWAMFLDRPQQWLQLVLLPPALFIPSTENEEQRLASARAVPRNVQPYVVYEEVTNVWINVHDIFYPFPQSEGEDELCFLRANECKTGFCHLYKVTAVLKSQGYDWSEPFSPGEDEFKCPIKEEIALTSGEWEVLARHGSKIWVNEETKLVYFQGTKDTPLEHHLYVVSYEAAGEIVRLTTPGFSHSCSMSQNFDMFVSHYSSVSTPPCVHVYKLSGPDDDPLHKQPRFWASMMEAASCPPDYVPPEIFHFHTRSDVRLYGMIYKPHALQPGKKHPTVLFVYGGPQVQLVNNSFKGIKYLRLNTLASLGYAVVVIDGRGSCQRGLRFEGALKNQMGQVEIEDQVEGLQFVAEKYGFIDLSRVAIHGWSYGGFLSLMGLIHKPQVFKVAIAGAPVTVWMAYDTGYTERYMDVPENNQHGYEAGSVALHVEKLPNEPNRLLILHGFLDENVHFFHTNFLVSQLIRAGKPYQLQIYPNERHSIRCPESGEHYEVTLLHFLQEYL
Experimental: 293T cells were transfected with vector or wild-type DPP9. DPP9-transfected cells were treated with VbP, Anisomycin (ANS) or Harringtonine (HTN). Cells were lysed in PBS 1% Tween-20, 48 h after transfection and treatments. 0.3 μg of total lysate was then incubated with 0.1 μM uGly-Pro-AMC fluorescence substrate. AMC fluorescence was measured after 30 mins at 25° C. in a 50 μl reaction every minute on a spectrometer and the rate of Gly-Pro-AMC hydrolysis per minute calculated.

[1] = test system: 3D human organotypic skin; test: 3D organotypic skin histology and cleaved GSDMD-NT immunostaining; format: cell-based
Experimental: Organotypic cultures were generated by adapting a previously described protocol (Arnette et al., 2016). Briefly, 2 ml of collagen I (4 mg/ml; Corning, #354249) mixed with 7.5×10^5 human fibroblasts were allowed to polymerize over 1-m1 acellular collagen I in 6-well culture inserts (Falcon, #353102) placed in 6-well deep well plate (Falcon, #355467). After 24 hours, 1×10^6 primary human keratinocytes were seeded into the inserts and kept submerged in a 3:1 DMEM (Hyclone, #SH30243.01) and F12 (Gibco, #31765035) mixture with 10% FBS (Hyclone, #SV30160.03), 100 U/ml penicillin-streptomycin (Gibco, #15140122), 10 μM Y-27632 (Tocris, #1254), 10 ng/ml EGF (Sigma-Aldrich, #E9644), 1×10^−10 M cholera toxin (Enzo, #BML-G117-001), 0.4 μg/ml hydrocortisone (Sigma-Aldrich, #H0888), 0.0243 mg/ml adenine (Sigma-Aldrich, #A2786), 5 μg/ml insulin (Sigma-Aldrich, #12643), 5 μg/ml transferrin (Sigma-Aldrich, #T2036) and 2×10^−9 M 3,3′,5′-triiodo-L-thyronine (Sigma-Aldrich, #T6397). After another 24 hours, the organotypic cultures were then raised at the air-liquid interface and fed with the submerged media (without Y-27632 and EGF) below the insert to induce epidermal differentiation. The air-lifting medium was replaced every 2 days and treatments began 10-14 days after airlifting. Organotypic cultures were then harvested 24 hours after treatment and formalin fixed for 24 hours. Fixed tissues were then embedded into wax for histological purposes.
For immunohistochemistry staining of cleaved N-terminal GSDMD a previously established protocol with modifications was used [Wang et al., Cell 180:941-955.e20 (2020)]. Briefly, 5 μm formalin fixed and paraffin embedded sections were deparaffinized and rehydrated through a series of alcohol. The sections were then rehydrated in an antigen retrieval buffer (Dako, Tris-EDTA, pH 9). Sections were then blocked in goat serum for 20 mins at RT before primary antibody incubated overnight at 4° C. Immunostaining was visualised using DAB substrate and chromogen detection kit (Dako, #K3468). Sections were then counterstained with Myer's Hematoxylin.

293T-ASC-GFP-NLRP1 = format: cell-based, human
[2] = test system: primary bronchial epithelial cells (NHBEs); test: Inflammasome activation and pyroptosis in primary bronchial epithelial cells; format: cell-based, human; settings: ANS 1 μM

Structure (SMILES): COc1ccc(C[C@H]2NC[C@H](O)[C@H]2OC(C)=O)cc1 [ANS, Anisomycin]
- NLRP1^DR hyperphosphorylation (NLRP1^DR; NLRP1DR-GFP in N-TERT cells, PhosTag SDS-PAGE): became further phosphorylated
- band shift (phosphorylation) of PYD-DR1-GFP (NLRP1^DR; NLRP1 KO N-TERT cells expressing GFP-tagged PYD-DR1): band shift in PYD-DR1-GFP
- catalytic activity of human DPP9 (human DPP9): had no effect on the catalytic activity of human DPP9
- epidermal dyskeratosis ([1]; H&E, 24 hours after treatment): caused striking epidermal dyskeratosis
- cleaved GSDMD N-terminal fragment at the cell membrane ([1]; immunostaining): prominently enriched at the cell membrane
- ASC-GFP speck formation, screen of cytotoxic chemicals (293T-ASC-GFP-NLRP1; ANS 1 μM, LTM 1 μg/ml, STS 1 μM): identified two hits
- percentage of cells with ASC-GFP specks compared with VbP (293T-ASC-GFP-NLRP1; equivalent concentrations): to a greater extent than VbP at equivalent concentrations
- dose dependence of percentage of cells with ASC-GFP specks (293T-ASC-GFP-NLRP1; increasing levels of ANS): in a dose-dependent manner (FIG. 2B) up to 20 μM
- canonical inflammasome activation and pyroptosis [2]: underwent canonical inflammasome activation and pyroptosis
